In patent publication US11046699B2, “Pyrazolo-pyrimidin-amino-cycloalkyl compounds and their therapeutic uses” (RAPT THERAPEUTICS, INC., priority 2018, dated 2021):
Read-outs that look alike come from different tables or passages of the source.

Target: GCN2 (Homo sapiens, UniProt Q9P2K8)
Test: GCN2 enzymatic endpoint assay: phosphorylation of GFP-eIF2α measured by TR-FRET (Lanthascreen)
Type: biochemical
Summary of the method: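 2 μM ATP, 80 nM GFP-eIF2α, RT, 90 min; EDTA stop. Tb-anti-phospho antibody TR-FRET read, 520/495 nm ratio.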

[1] = tested as described in Example 77, compound and/or hydrochloride, dihydrochloride or trifluoroacetic acid salt, read-out: IC 50 Activity
[2] = GCN2 biochemical IC50, 4 nM GCN2, 2 μM ATP, 80 nM GFP-eIF2α, 90 min RT, read-out: GCN2 activity

GCN2, sequence (Q9P2K8 whole entry): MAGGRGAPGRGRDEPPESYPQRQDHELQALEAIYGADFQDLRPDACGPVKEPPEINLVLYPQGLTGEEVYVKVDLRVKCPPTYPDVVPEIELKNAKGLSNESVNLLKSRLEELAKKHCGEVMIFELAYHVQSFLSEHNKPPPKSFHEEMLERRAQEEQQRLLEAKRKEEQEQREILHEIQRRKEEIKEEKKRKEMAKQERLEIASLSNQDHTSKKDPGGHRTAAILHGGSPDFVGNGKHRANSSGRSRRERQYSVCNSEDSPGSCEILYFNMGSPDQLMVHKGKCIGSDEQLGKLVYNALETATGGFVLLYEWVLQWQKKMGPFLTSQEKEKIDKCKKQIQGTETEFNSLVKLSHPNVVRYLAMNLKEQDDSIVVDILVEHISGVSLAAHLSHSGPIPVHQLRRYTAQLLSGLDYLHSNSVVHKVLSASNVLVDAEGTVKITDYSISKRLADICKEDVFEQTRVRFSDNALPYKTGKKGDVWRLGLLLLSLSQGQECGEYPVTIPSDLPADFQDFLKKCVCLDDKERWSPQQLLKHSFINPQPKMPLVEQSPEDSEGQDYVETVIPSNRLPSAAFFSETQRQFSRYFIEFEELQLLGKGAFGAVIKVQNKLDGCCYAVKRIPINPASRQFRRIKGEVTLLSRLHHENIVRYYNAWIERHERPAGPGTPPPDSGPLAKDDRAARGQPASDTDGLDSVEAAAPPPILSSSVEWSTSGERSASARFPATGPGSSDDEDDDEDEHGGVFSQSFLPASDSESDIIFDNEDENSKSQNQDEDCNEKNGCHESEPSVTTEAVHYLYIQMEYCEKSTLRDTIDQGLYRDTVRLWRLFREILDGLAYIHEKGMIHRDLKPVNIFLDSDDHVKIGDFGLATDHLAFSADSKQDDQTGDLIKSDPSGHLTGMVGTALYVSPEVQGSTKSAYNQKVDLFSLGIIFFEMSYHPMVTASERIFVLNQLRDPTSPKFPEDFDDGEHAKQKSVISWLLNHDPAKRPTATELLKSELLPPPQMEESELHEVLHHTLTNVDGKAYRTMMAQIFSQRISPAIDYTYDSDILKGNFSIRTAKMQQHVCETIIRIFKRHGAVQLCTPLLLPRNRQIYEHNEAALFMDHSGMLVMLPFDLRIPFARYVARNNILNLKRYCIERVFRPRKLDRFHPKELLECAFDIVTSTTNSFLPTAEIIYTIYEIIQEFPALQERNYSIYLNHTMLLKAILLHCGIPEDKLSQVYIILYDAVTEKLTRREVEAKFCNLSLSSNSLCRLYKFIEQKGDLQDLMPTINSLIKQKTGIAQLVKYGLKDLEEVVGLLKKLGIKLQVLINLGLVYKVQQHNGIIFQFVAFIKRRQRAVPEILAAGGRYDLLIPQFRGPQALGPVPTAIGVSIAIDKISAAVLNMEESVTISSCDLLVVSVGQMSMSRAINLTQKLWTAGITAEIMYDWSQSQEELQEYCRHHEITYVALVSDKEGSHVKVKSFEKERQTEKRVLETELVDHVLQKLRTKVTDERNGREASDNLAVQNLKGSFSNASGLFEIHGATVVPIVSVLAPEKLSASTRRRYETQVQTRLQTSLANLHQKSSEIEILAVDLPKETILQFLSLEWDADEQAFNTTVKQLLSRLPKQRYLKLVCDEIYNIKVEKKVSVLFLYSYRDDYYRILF

| SMILES | IC50 [1] | IC50 [2] |
| --- | --- | --- |
| CNC(=O)[C@]1(C)CC[C@@H](Nc2ncc3c(Br)nn(-c4cc(Cl)cc(OCC5(F)CNC5)c4)c3n2)C1 [(1R,3R)-3-[[3-bromo-1-[3-chloro-5-[(3-fluoroazetidin-3-yl)methoxy]phenyl]pyrazolo[3,4-d]pyrimidin-6-yl]amino]-N,1-dimethyl-cyclopentanecarboxamide] | < 25 nM |  |
| Cc1nnc(-c2ccc(-n3nc(Br)c4cnc(N[C@@H]5CCC(C)(C(=O)N6CCOCC6)C5)nc43)cc2)o1 (stereo partly drawn) [[(3R)-3-[[3-bromo-1-[4-(5-methyl-1,3,4-oxadiazol-2-yl)phenyl]pyrazolo[3,4-d]pyrimidin-6-yl]amino]-1-methyl-cyclopentyl]-morpholino-methanone] | 25 to 200 nM |  |
| Cc1nnc(-c2ccc(-n3nc(Br)c4cnc(N[C@@H]5CCC(C)(C(=O)N6CCNCC6)C5)nc43)cc2)o1 (stereo partly drawn) [[(3R)-3-[[3-bromo-1-[4-(5-methyl-1,3,4-oxadiazol-2-yl)phenyl]pyrazolo[3,4-d]pyrimidin-6-yl]amino]-1-methyl-cyclo-pentyl]-piperazin-1-yl-methanone] | 25 to 200 nM |  |
| CNC(=O)[C@]1(C)CC[C@@H](Nc2ncc3c(Br)nn(-c4cc(CCN)c5c(c4)CCO5)c3n2)C1 [(1R,3R)-3-[[1-[7-(2-aminoethyl)-2,3-dihydrobenzofuran-5-yl]-3-bromo-pyrazolo [3,4-d]pyrimidin-6-yl]amino]-N,1-dimethyl-cyclopentanecarboxamide] | 25 to 200 nM |  |
| CNC(=O)[C@]1(C)CC[C@@H](Nc2ncc3c(Br)nn(-c4ccc(-c5nnc(C(C)O)o5)cc4)c3n2)C1 (stereo partly drawn) [(1R,3R)-3-[[3-bromo-1-[4-[5-(1-hydroxy-ethyl)-1,3,4-oxadiazol-2-yl]phenyl]pyrazolo [3,4-d]pyrimidin-6-yl]amino]-N,1-dimethyl-cyclopentanecarboxamide] | 25 to 200 nM |  |
| CNCCc1cc(-n2nc(Br)c3cnc(N[C@@H]4CC[C@@](C)(C(=O)NC)C4)nc32)ccc1-c1ncco1 [(1R,3R)-3-[[3-bromo-1-[3-[2-(methylamino)ethyl]-4-oxazol-2-yl-phenyl]pyrazolo[3,4-d]pyrimidin-6-yl]amino]-N,1-dimethyl-cyclopentanecarboxamide] | 25 to 200 nM |  |
| Cc1ccc2cc(-n3nc(Br)c4cnc(N[C@@H]5CC[C@@H](P(C)(C)=O)C5)nc43)cc(CCO)c2n1 [2-[6-[3-bromo-6-[[(1R,3R)-3-dimethyl-phosphorylcyclopentyl]amino]pyrazolo [3,4-d]pyrimidin-1-yl]-2-methyl-8-quinolyl]ethanol] | 25 to 200 nM |  |
| COC[C@@H](C)NC(=O)[C@@H]1CCC[C@@H](Nc2ncc3c(Br)nn(-c4ccc5ncccc5c4)c3n2)C1 [(1R,3R)-3-((3-bromo-1-(quinolin-6-yl)-1H-pyrazolo[3,4-d]pyrimidin-6-yl)amino)-N-((R)-1-methoxypropan-2-yl)cyclohexane-1-carboxamide] | 500 to 1000 nM |  |
| CNC(=O)[C@]1(C)CC[C@@H](Nc2ncc3c(Br)nn(-c4ccc(C#N)c(OCCO)c4)c3n2)C1 [(1R,3R)-3-[[3-bromo-1-[4-cyano-3-(2-hydroxyethoxy)phenyl]pyrazolo[3,4-d]pyrimidin-6-yl]amino]-N,1-dimethyl-cyclopentanecarboxamide] | 25 to 200 nM |  |
| CNC(=O)[C@]1(C)CC[C@@H](Nc2ncc3c(Br)nn(-c4ccc(-c5nnco5)cc4)c3n2)C1 [(1R,3R)-3-[[3-bromo-1-[4-(1,3,4-oxadiazol-2-yl)phenyl]pyrazolo[3,4-d]pyrimidin-6-yl]amino]-N,1-dimethyl-cyclopentane-carboxamide] | 25 to 200 nM |  |
| CNC(=O)[C@]1(C)CC[C@@H](Nc2ncc3c(Br)nn(-c4ccc(-c5nnc(C(=O)N6CCOCC6)s5)cc4)c3n2)C1 [(1R,3R)-3-[[3-bromo-1-[4-[5-(morpholine-4-carbonyl)-1,3,4-thiadiazol-2-yl]phenyl]pyrazolo[3,4-d]pyrimidin-6-yl]amino]-N,1-dimethyl-cyclopentanecarboxamide] | 25 to 200 nM |  |
| CNC(=O)[C@]1(C)CC[C@@H](Nc2ncc3c(Br)nn(-c4ccc5c(c4)CN(S(C)(=O)=O)C5)c3n2)C1 [Example 61, (1R,3R)-3-((3-bromo-1-(2-(methylsulfonyl)isoindolin-5-yl)-1H-pyrazolo[3,4-d]pyrimidin-6-yl)amino)-N,1-dimethylcyclopentane-1-carboxamide] |  | 25 to 200 nM |
| CNC(=O)[C@]1(C)CC[C@@H](Nc2ncc3c(Br)nn(-c4ccc(Cl)c([C@H](C)N)c4)c3n2)C1 [Example 65, (1R,3R)-3-((1-(3-((S)-1-aminoethyl)-4-chlorophenyl)-3-bromo-1H-pyrazolo[3,4-d]pyrimidin-6-yl)amino)-N,1-dimethylcyclopentane-1-carboxamide] |  | < 25 nM |
| CNC(=O)[C@]1(C)CC[C@@H](Nc2ncc3c(Br)nn(-c4ccc(-n5cncn5)cc4)c3n2)C1 [(1R,3R)-3-[[3-bromo-1-[4-(1,2,4-triazol-1-yl)phenyl]pyrazolo[3,4-d]pyrimidin-6-yl]amino]-N,1-dimethyl-cyclopentane-carboxamide] | 25 to 200 nM |  |
| CNC(=O)[C@]1(C)CC[C@@H](Nc2ncc3c(Br)nn(-c4ccc(F)c(CCN)c4)c3n2)C1 [(1R,3R)-3-[[1-[3-(2-aminoethyl)-4-fluoro-phenyl]-3-bromo-pyrazolo[3,4-d]pyrimidin-6-yl]amino]-N,1-dimethyl-cyclopentane-carboxamide] | 25 to 200 nM |  |
| CNC(=O)C1(C)CC[C@@H](Nc2ncc3c(Br)nn(-c4cc(Cl)cc(C(N)=O)c4)c3n2)C1 (stereo partly drawn) [3-[3-bromo-6-[[(1R)-3-methyl-3-(methylcarbamoyl)cyclopentyl]amino]pyrazolo[3,4-d]pyrimidin-1-yl]-5-chloro-benzamide] | < 25 nM |  |
| CNC(=O)[C@]1(C)CC[C@@H](Nc2ncc3c(Br)nn(-c4cc(CC5(N)CC5)c5ncccc5c4)c3n2)C1 [(1R,3R)-3-[[1-[8-[(1-aminocyclopropyl)methyl]-6-quinolyl]-3-bromo-pyrazolo [3,4-d]pyrimidin-6-yl]amino]-N,1-dimethyl-cyclopentanecarboxamide] | 25 to 200 nM |  |

Other lines, results leading:

| IC50 [1] | IC50 [2] | SMILES |
| --- | --- | --- |
| 25 to 200 nM |  | COCCO[C@@H]1CCN(C(=O)[C@@H]2CC[C@@H](Nc3ncc4c(Br)nn(-c5ccc6ncccc6c5)c4n3)C2)C1 [((1R,3R)-3-((3-bromo-1-(quinolin-6-yl)-1H-pyrazolo[3,4-d]pyrimidin-6-yl)amino)cyclopentyl)((R)-3-(2-methoxyethoxy)pyrrolidin-1-yl)methanone] |
| < 25 nM |  | O=C1CN(C(=O)[C@@H]2CC[C@@H](Nc3ncc4c(Br)nn(-c5cc(F)c6ncccc6c5)c4n3)C2)CC(=O)N1 [4-((1R,3R)-3-((3-bromo-1-(8-fluoroquinolin-6-yl)-1H-pyrazolo[3,4-d]pyrimidin-6-yl)amino)cyclopentane-1-carbonyl)piperazine-2,6-dione] |
| < 25 nM |  | CNC(=O)[C@@H]1CC[C@@H](Nc2ncc3c(Br)nn(-c4cc(OC)c5ncccc5c4)c3n2)C1 [(1R,3R)-3-[[3-bromo-1-(8-methoxy-6-quinolyl)pyrazolo[3,4-d]pyrimidin-6-yl]amino]-N-methyl-cyclopentanecarboxamide] |
| < 25 nM |  | O=C([C@@H]1CC[C@@H](Nc2ncc3c(Br)nn(-c4cc(F)c5ncccc5c4)c3n2)C1)N1CCN2C(=O)CC[C@@H]2C1 [(8aR)-2-[(1R,3R)-3-[[3-bromo-1-(8-fluoro-6-quinolyl)pyrazolo[3,4-d]pyrimidin-6-yl]amino]cyclopentane-carbonyl]-1,3,4,7,8,8a-hexahydro-pyrrolo[1,2-a]pyrazin-6-one] |
|  | < 25 nM | CNC(=O)[C@]1(C)CC[C@@H](Nc2ncc3c(I)nn(-c4cc(F)c5ncccc5c4)c3n2)C1 [Example 31, (1R,3R)-3-((1-(8-fluoroquinolin-6-yl)-3-iodo-1H-pyrazolo[3,4-d]pyrimidin-6-yl)amino)-N,1-dimethylcyclopentane-1-carboxamide; 2,2,2-trifluoroacetic acid] |
| 25 to 200 nM |  | COCCNC(=O)[C@@H]1CC[C@@H](Nc2ncc3c(Br)nn(-c4cc(F)c5ncccc5c4)c3n2)C1 [(1R,3R)-3-((3-bromo-1-(8-fluoroquinolin-6-yl)-1H-pyrazolo[3,4-d]pyrimidin-6-yl)amino)-N-(2-methoxyethyl)cyclopentane-1-carboxamide] |
| 25 to 200 nM |  | O[C@H]1CCC[C@@H]1Nc1ncc2c(Br)nn(-c3cc(F)c4ncccc4c3)c2n1 [(1S,2S)-2-[[3-bromo-1-(8-fluoro-6-quinolyl)pyrazolo[3,4-d]pyrimidin-6-yl]amino] cyclopentanol] |
| < 25 nM |  | CC1(C(=O)N2CC3CCC(C2)O3)CC[C@@H](Nc2ncc3c(Br)nn(-c4cc(F)c5ncccc5c4)c3n2)C1 (stereo partly drawn) [[(3R)-3-[[3-bromo-1-(8-fluoro-6-quinolyl)pyrazolo[3,4-d]pyrimidin-6-yl]amino]-1-methyl-cyclopentyl]-(8-oxa-3-azabicyclo [3.2.1]octan-3-yl)methanone] |
| < 25 nM |  | O=C([C@@H]1CC[C@@H](Nc2ncc3c(Br)nn(-c4cc(F)c5ncccc5c4)c3n2)C1)N1CCC2(CNC2)C(F)(F)C1 [[(1R,3R)-3-[[3-bromo-1-(8-fluoro-6-quinolyl)pyrazolo[3,4-d]pyrimidin-6-yl]amino]cyclo-pentyl]-(5,5-difluoro-2,7-diazaspiro[3.5]nonan-7-yl)methanone] |
| < 25 nM |  | CC[C@@]1(C(=O)NC)CC[C@@H](Nc2ncc3c(Br)nn(-c4cc(F)c5ncccc5c4)c3n2)C1 [(1R,3R)-3-[[3-bromo-1-(8-fluoro-6-quinolyl)pyrazolo[3,4-d]pyrimidin-6-yl]amino]-1-ethyl-N-methyl-cyclopentanecarboxamide] |
| < 25 nM |  | COC(C)(C)CN(C)C(=O)[C@]1(C)CC[C@@H](Nc2ncc3c(Br)nn(-c4cc(F)c5ncccc5c4)c3n2)C1 [(1R,3R)-3-[[3-bromo-1-(8-fluoro-6-quinolyl)pyrazolo[3,4-d]pyrimidin-6-yl]amino]-N-(2-methoxy-2-methyl-propyl)-N,1-dimethyl-cyclopentanecarboxamide] |
| 25 to 200 nM |  | CCN1CN(C(=O)[C@@H]2CC[C@@H](Nc3ncc4c(Br)nn(-c5cc(F)c6ncccc6c5)c4n3)C2)CC1=O [1-((1R,3R)-3-((3-bromo-1-(8-fluoroquinolin-6-yl)-1H-pyrazolo[3,4-d]pyrimidin-6-yl)amino)cyclopentane-1-carbonyl)-3-ethyl-imidazolidin-4-one] |
